Assay results: patent US20030008012A1, “Composition for rectal delivery of an oxazolidinone antibacterial drug” (priority 2001, published 2003)

Test: Linezolid concentration in blood plasma of beagle dogs after rectal administration of one suppository
Type: in vivo
Settings: dog, other: rectal
Description: One 20 mg linezolid suppository prepared as above was rectally administered to each of four beagle dogs, and the concentration of linezolid in blood plasma of the dogs was determined at different times after administration, as presented in Table 2.
One 600 mg linezolid suppository prepared as above was rectally administered to each of four beagle dogs and the concentration of linezolid in blood plasma of the dogs was determined at different times after administration, as presented in Table 3.

[1] = 20 mg, Example 2 solution suppository, 20 mg linezolid, Dog 1 (15.2 kg)
[2] = 20 mg, Example 2 solution suppository, 20 mg linezolid, Dog 2 (13.7 kg)
[3] = 20 mg, Example 2 solution suppository, 20 mg linezolid, Dog 3 (10.5 kg)
[4] = 20 mg, Example 2 solution suppository, 20 mg linezolid, Dog 4 (12.2 kg)
[5] = 600 mg, Example 5 particulate dispersion suppository, 600 mg linezolid, Dog 1 (15.0 kg)
[6] = 600 mg, Example 5 particulate dispersion suppository, 600 mg linezolid, Dog 2 (13.4 g)
[7] = 600 mg, Example 5 particulate dispersion suppository, 600 mg linezolid, Dog 3 (10.1 kg)
[8] = 600 mg, Example 5 particulate dispersion suppository, 600 mg linezolid, Dog 4 (12.5 kg)

concentration at 0.25 h [1]: 47.6 ng/mL | concentration at 0.5 h [1]: 132 ng/mL | concentration at 0.75 h [1]: 168 ng/mL | concentration at 1 h [1]: 209 ng/mL | concentration at 1.5 h [1]: 267 ng/mL | concentration at 2 h [1]: 354 ng/mL | concentration at 2.5 h [1]: 417 ng/mL | concentration at 3 h [1]: 364 ng/mL | concentration at 0.25 h [2]: 54.6 ng/mL | concentration at 0.5 h [2]: 136 ng/mL | concentration at 0.75 h [2]: 189 ng/mL | concentration at 1 h [2]: 197 ng/mL | concentration at 1.5 h [2]: 179 ng/mL | concentration at 2 h [2]: 238 ng/mL | concentration at 2.5 h [2]: 171 ng/mL | concentration at 3 h [2]: 146 ng/mL | concentration at 0.25 h [3]: 134 ng/mL | concentration at 0.5 h [3]: 305 ng/mL | concentration at 0.75 h [3]: 340 ng/mL | concentration at 1 h [3]: 388 ng/mL | concentration at 1.5 h [3]: 423 ng/mL | concentration at 2 h [3]: 351 ng/mL | concentration at 2.5 h [3]: 331 ng/mL | concentration at 3 h [3]: 317 ng/mL | concentration at 0.25 h [4]: 80.7 ng/mL | concentration at 0.5 h [4]: 204 ng/mL | concentration at 0.75 h [4]: 291 ng/mL | concentration at 1 h [4]: 394 ng/mL | concentration at 1.5 h [4]: 532 ng/mL | concentration at 2 h [4]: 548 ng/mL | concentration at 2.5 h [4]: 550 ng/mL | concentration at 3 h [4]: 556 ng/mL | concentration at 0.25 h [5]: 1110 ng/mL | concentration at 0.5 h [5]: 2250 ng/mL | concentration at 0.75 h [5]: 3840 ng/mL | concentration at 1 h [5]: 5010 ng/mL | concentration at 1.5 h [5]: 6260 ng/mL | concentration at 2 h [5]: 7230 ng/mL | concentration at 2.5 h [5]: 7980 ng/mL | concentration at 3 h [5]: 8480 ng/mL | concentration at 0.25 h [6]: 770 ng/mL | concentration at 0.5 h [6]: 1240 ng/mL | concentration at 0.75 h [6]: 1940 ng/mL | concentration at 1 h [6]: 2610 ng/mL | concentration at 1.5 h [6]: 3490 ng/mL | concentration at 2 h [6]: 3570 ng/mL | concentration at 2.5 h [6]: 5010 ng/mL | concentration at 3 h [6]: 4730 ng/mL | concentration at 0.25 h [7]: 444 ng/mL | concentration at 0.5 h [7]: 1110 ng/mL | concentration at 0.75 h [7]: 1680 ng/mL | concentration at 1 h [7]: 2540 ng/mL | concentration at 1.5 h [7]: 3460 ng/mL | concentration at 2 h [7]: 4840 ng/mL | concentration at 2.5 h [7]: 5510 ng/mL | concentration at 3 h [7]: 6570 ng/mL | concentration at 0.25 h [8]: 1100 ng/mL | concentration at 0.5 h [8]: 1720 ng/mL | concentration at 0.75 h [8]: 1930 ng/mL | concentration at 1 h [8]: 2640 ng/mL | concentration at 1.5 h [8]: 4260 ng/mL | concentration at 2 h [8]: 4810 ng/mL | concentration at 2.5 h [8]: 6060 ng/mL | concentration at 3 h [8]: 7480 ng/mL
Structure (SMILES): CC(=O)NC[C@H]1CN(c2ccc(N3CCOCC3)c(F)c2)C(=O)O1 [Linezolid, (S)-N-[[3-[3-fluoro-4-(4-morpholinyl)phenyl]-2-oxo-5-oxazolidinyl]methyl]acetamide]
